Experimental data reported in doi:10.1101/2022.04.17.488584v1, “A cobB like protein in Oryza sativa indica regulates the mitochondrial machinery under stress conditions” (biorxiv, 2022).
Where two headings read alike, the source gives them in different places.

Experiments:
OscobB [1] = biological target: T1, OscobB (Oryza sativa, UniProt A2XBC4); experiment: dot blot deacetylation assay; format: biochemical
T1 construct: gene OsI_09569; cobB-like portion 269-501 of OsI_09569, untagged, modified pET28a (insert 711 bp), E. coli BL21(DE3), ion exchange; 25-28 kDa monomer
T1 sequence (A2XBC4 269-501): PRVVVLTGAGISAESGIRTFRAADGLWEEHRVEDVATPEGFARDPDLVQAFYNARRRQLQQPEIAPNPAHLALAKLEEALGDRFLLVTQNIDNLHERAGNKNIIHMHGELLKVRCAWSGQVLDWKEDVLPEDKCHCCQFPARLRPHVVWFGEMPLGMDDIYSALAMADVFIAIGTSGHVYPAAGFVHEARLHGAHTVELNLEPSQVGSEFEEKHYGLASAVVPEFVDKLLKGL

OscobB [2] = biological target: T1, OscobB; experiment: intrinsic tryptophan fluorescence quenching; format: binding
OscobB [3] = biological target: T1, OscobB; experiment: dot blot deacetylation assay; format: biochemical; remark: listed apart in the source

In the case of `Nc1ncnc2c1ncn2[C@@H]1O[C@H](COP(=O)(O)OP(=O)(O)OC[C@H]2OC(O)[C@H](O)[C@@H]2O)[C@@H](O)[C@H]1O` (stereo partly shown) [ADP-ribose], the IC50 (OscobB [1]; NAD+, analog of product O-acetyl-ADP-ribose) is reported as 410 µM.
In the case of `NC(=O)c1ccc[n+]([C@@H]2O[C@H](COP(=O)(O)OP(=O)(O)OC[C@H]3O[C@@H](n4cnc5c(N)ncnc54)[C@H](O)[C@@H]3O)[C@@H](O)[C@H]2O)c1` [NAD^+], the Kd (OscobB [2]) is reported as 30 ± 2 µM.
`NC(=O)c1cccnc1` [NAM] was tested, and the IC50 (OscobB [1]) was 253 ± 45 µM.
In the case of `Oc1ccc(/C=C/c2cc(O)cc(O)c2)cc1` [resveratrol], the EC50 (OscobB [3]) is reported as 51 µM.
